In US20100216767A1, “QUINAZOLINES FOR PDK1 INHIBITION” (priority 2006, published 2010) one finds IC50 data, which are given here for 37 compounds.

This assay has as its target T1, PDK1 kinase (Homo sapiens, UniProt O15530).
T1 sequence (O15530 1-556): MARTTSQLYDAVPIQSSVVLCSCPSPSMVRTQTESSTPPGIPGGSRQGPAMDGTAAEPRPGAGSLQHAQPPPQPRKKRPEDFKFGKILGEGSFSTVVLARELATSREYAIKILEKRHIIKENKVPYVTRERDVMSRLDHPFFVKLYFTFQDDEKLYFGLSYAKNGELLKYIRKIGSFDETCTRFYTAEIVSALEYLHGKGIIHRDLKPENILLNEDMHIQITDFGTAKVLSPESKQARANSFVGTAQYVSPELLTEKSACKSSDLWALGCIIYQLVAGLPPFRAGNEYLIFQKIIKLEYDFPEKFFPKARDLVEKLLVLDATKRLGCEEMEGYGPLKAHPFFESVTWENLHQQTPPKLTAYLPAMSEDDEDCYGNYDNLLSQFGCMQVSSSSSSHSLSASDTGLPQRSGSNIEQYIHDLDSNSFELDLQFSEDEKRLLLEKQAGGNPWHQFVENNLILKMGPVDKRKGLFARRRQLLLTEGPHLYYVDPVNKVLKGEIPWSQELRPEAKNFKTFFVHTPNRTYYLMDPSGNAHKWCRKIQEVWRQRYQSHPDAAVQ
As to the kind of experiment: PDK1 Kinase Alpha Screen Assay. Format: biochemical. The note with it: Table 1; 10 μM ATP, 50 nM PDK1-4 peptide. Put shortly: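 PDK1 phosphorylation of 50 nM biotinylated PDK1-4 peptide with 10 μM ATP in 50 mM Tris pH 7.5, 10 mM MgCl2, 0.1% BSA, 0.01% Tween-20, 2 mM DTT, 2.5% DMSO, 3-18 h. Stopped with EDTA; phosphopeptide detected by AlphaScreen using phospho-(Ser/Thr) PKA substrate antibody on protein A acceptor and streptavidin donor beads, overnight at room temperature.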
The IC50 is the concentration needed to halve the response being measured. Lower therefore signals higher potency. Compound `COc1cc2cnc(Nc3ccc(S(N)(=O)=O)cc3)nc2cc1OC` [Example 35, 4-(6,7-Dimethoxyquinazolin-2-ylamino)benzenesulfonamide] displayed an IC50 of under 5 µM.
Under `C#Cc1cc2cnc(Nc3ccc(N4CCOCC4)cc3)nc2cc1OC` [Example 69, 6-ethynyl-7-methoxy-N-(4-morpholinophenyl)-quinazolin-2-amine] stands under 5 µM.
Take `C#Cc1ccc2nc(Nc3cc(NC(C)=O)cc(-c4ccncc4)c3)ncc2c1` [Example 146, N-(3-(6-ethynylquinazolin-2-ylamino)-5-(pyridin-4-yl)phenyl)acetamide]: the IC50 was under 5 µM.
In turn, `C#Cc1cc2cnc(Nc3cccc(-n4cnnn4)c3)nc2cc1OC` [Example 103, N-(3-(1H-tetrazol-1-yl)phenyl)-6-ethynyl-7-methoxyquinazolin-2-amine] yielded an IC50 of under 5 µM.
To `C#Cc1ccc2nc(Nc3cc(CN4CCCC4)cc(NC(C)=O)c3)ncc2c1` [Example 127, N-(3-(6-ethynylquinazolin-2-ylamino)-5-(pyrrolidin-1-ylmethyl)phenyl)-acetamide] belongs under 5 µM; to `COc1cc(-c2nccs2)c(Cl)c2cnc(Nc3ccc(C(=O)NC(C)C)cc3)nc12` [Example 119, 4-(5-chloro-8-methoxy-6-(thiazol-2-yl)quinazolin-2-ylamino)-N-isopropyl-benzamide], under 5 µM.
To `C#Cc1ccc2nc(Nc3cccc(C(N)=O)c3)ncc2c1` [Example 59, 3-(6-ethynylquinazolin-2-ylamino)benzamide] belongs under 5 µM; to `C#Cc1ccc2nc(Nc3cc(NC(C)=O)cc(NC(C)=O)c3)ncc2c1Cl` [Example 130, N,N′-(5-(5-chloro-6-ethynylquinazolin-2-ylamino)-1,3-phenylene-) diacetamide], under 5 µM.
Take `C#Cc1ccc2nc(Nc3cc(CN4CCOCC4)cc(NC(=O)C(C)C)c3)ncc2c1` [Example 142, N-(3-(6-ethynylquinazolin-2-ylamino)-5-(morpholino-methyl)phenyl)-isobutyramide]: the IC50 was under 5 µM.
Under `CC#Cc1ccc2nc(Nc3cc(CN(C)C)cc(NC(C)=O)c3)ncc2c1` [Example 148, N-(3-((dimethylamino)-methyl)-5-(6-(prop-1-ynyl)quinazolin-2-ylamino)phenyl)acetamide] stands under 5 µM; under `COc1cc2nc(Nc3cccc(-n4cnnn4)c3)ncc2cc1-c1nccs1` [Example 112, N-(3-(1H-tetrazol-1-yl)phenyl)-7-methoxy-6-(thiazol-2-yl)quinazolin-2-amine], under 5 µM.
In turn, `CN1CCN(c2cc(-c3ccc4nc(Nc5ccc(S(N)(=O)=O)cc5)ncc4c3)ccn2)CC1` [Example 45, 4-(6-(2-(4-methyl-piperazin-1-yl)pyridin-4-yl)quinazolin-2-ylamino)-benzenesulfonamide] displayed a concentration for half-maximal inhibition (IC50) of under 5 µM.
Under `C#Cc1ccc2nc(Nc3cc(CN4CCOCC4)cc(NC(C)=O)c3)ncc2c1F` [Example 161, N-(3-(6-ethynyl-5-fluoro-quinazolin-2-ylamino)-5-(morpholinomethyl)-phenyl)-acetamide] stands under 5 µM.
To `CC(=O)Nc1cc(CN2CCOCC2)cc(Nc2ncc3cc(-c4nccs4)ccc3n2)c1` [Example 133, N-(3-(morpholinomethyl)-5-(6-(thiazol-2-yl)-quinazolin-2-ylamino)-phenyl)acetamide] belongs under 5 µM.
`COc1cc(-c2cncnc2)cc2cnc(Nc3cc(CN(C)C)cc(NC(C)=O)c3)nc12` [Example 95, N-(3-((dimethylamino)-methyl)-5-(8-methoxy-6-(pyrimidin-5-yl)-quinazolin-2-ylamino)-phenyl)acetamide] registered an IC50 of under 5 µM.
Consider `N#Cc1cc(CN2CCOCC2)cc(Nc2ncc3cc(Br)ccc3n2)c1` [Example 151, 3-(6-bromoquinazolin-2-ylamino)-5-(morpholino-methyl)benzonitrile], for which the 50% inhibitory concentration (IC50) is under 5 µM.
To `COc1cncc(-c2cc(OC)c3nc(Nc4cc(CN(C)C)cc(NC(C)=O)c4)ncc3c2)n1` [Example 110, N-(3-((dimethylamino)-methyl)-5-(8-methoxy-6-(6-methoxypyrazin-2-yl)quinazolin-2-ylamino)phenyl)acetamide] belongs under 5 µM; to `CNC(=O)c1ccc2nc(Nc3ccc(S(N)(=O)=O)cc3)ncc2c1` [Example 37, N-methyl-2-(4-sulfamoyl-phenylamino)quinazoline-6-carboxamide], 5 to 10 µM.
Under `CC(=O)Nc1ccc2nc(Nc3ccc(S(N)(=O)=O)cc3)ncc2c1` [Example 68, N-(2-(4-Sulfamoylphenylamino)quinazolin-6-yl)acetamide] stands under 5 µM; under `COc1nc(N)ncc1-c1cc(OC)c2nc(Nc3cc(CN(C)C)cc(NC(C)=O)c3)ncc2c1` [Example 111, N-(3-(6-(2-amino-4-methoxypyrimidin-5-yl)-8-methoxyquinazolin-2-ylamino)-5-((dimethyl-amino)methyl)-phenyl)-acetamide], 5 to 10 µM.
Under `C#Cc1ccc2nc(Nc3ccc(N4CCOCC4)cc3)ncc2c1Cl` [Example 99, 5-chloro-6-ethynyl-N-(4-morpholinophenyl)quinazolin-2-amine] stands under 5 µM; under `C#Cc1cc2cnc(Nc3ccc(-c4nnn[nH]4)cc3)nc2cc1OC` [Example 96, N-(4-(1H-tetrazol-5-yl)-phenyl)-6-ethynyl-7-methoxyquinazolin-2-amine], under 5 µM; under `CCc1cc(OC)c2nc(Nc3ccc(S(N)(=O)=O)cc3)ncc2c1` [Example 3, 4-(6-Ethyl-8-methoxyquinazolin-2-ylamino)benzenesulfonamide], under 5 µM.
On to `C#Cc1ccc2nc(Nc3cc(CN4CCOCC4)cc(-c4nnn[nH]4)c3)ncc2c1` [Example 149, 6-ethynyl-N-(3-(morpholinomethyl)-5-(1H-tetrazol-5-yl)phenyl)-quinazolin-2-amine], for which the IC50 is under 5 µM.
On to `C#Cc1cc2cnc(Nc3ccc(C(=O)N4CCOCC4)cc3)nc2cc1OC` [Example 74, (4-(6-ethynyl-7-methoxy-quinazolin-2-ylamino)-phenyl)(morpholino)-methanone], for which the IC50 is under 5 µM.
Under `COc1cc2nc(Nc3ccc(N4CCOCC4)cc3)ncc2cc1-c1cn[nH]c1` [Example 150, 7-methoxy-N-(4-morpholinophenyl)-6-(1H-pyrazol-4-yl)quinazolin-2-amine] stands under 5 µM; under `C#Cc1ccc2nc(Nc3cccc(S(N)(=O)=O)c3)ncc2c1` [Example 60, 3-(6-ethynylquinazolin-2-ylamino)benzene-sulfonamide], under 5 µM.
The compound `C#Cc1cc(Cl)c2nc(Nc3cc(CN4CCOCC4)cc(NC(C)=O)c3)ncc2c1` [Example 129, N-(3-(8-chloro-6-ethynyl-quinazolin-2-ylamino)-5-(morpholinomethyl)-phenyl)-acetamide] yielded a half-inhibitory concentration (IC50) of under 5 µM.
Compound `COc1cc(C#Cc2cccnc2)cc2cnc(Nc3ccc(S(N)(=O)=O)cc3)nc12` [Example 53, 4-(8-methoxy-6-(pyridin-3-ylethynyl)quinazolin-2-ylamino)benzene-sulfonamide] returned an IC50 of 10 to 25 µM.
To `COc1cc(-c2nccs2)cc2cnc(Nc3ccc(S(N)(=O)=O)cc3)nc12` [Example 63, 4-(8-methoxy-6-(thiazol-2-yl)quinazolin-2-ylamino)-benzenesulfonamide] belongs under 5 µM.
To `COc1cc(C)cc2cnc(Nc3ccc(S(N)(=O)=O)cc3)nc12` [Example 5, 4-(8-Methoxy-6-methylquinazolin-2-ylamino)benzenesulfonamide] belongs under 5 µM; to `COc1cc(-c2nccs2)cc2cnc(Nc3cc(CN(C)C)cc(NC(C)=O)c3)nc12` [Example 87, N-(3-((dimethylamino)-methyl)-5-(8-methoxy-6-(thiazol-2-yl)quinazolin-2-ylamino)phenyl)acetamide], under 5 µM.
Under `CC(=O)Nc1cc(CN2CCOCC2)cc(Nc2ncc3cc(Br)ccc3n2)c1` [Example 145, N-(3-(6-bromoquinazolin-2-ylamino)-5-(morpholino-methyl)phenyl)acetamide] stands under 5 µM; under `CC(=O)Nc1cc(CN(C)C)cc(Nc2ncc3c(Cl)c(-c4nccs4)ccc3n2)c1` [Example 91, N-(3-(5-chloro-6-(thiazol-2-yl)quinazolin-2-ylamino)-5-((dimethyl-amino)methyl)phenyl)-acetamide], under 5 µM.
Turning to `NS(=O)(=O)c1ccc(Nc2ncc3cc(C(=O)O)ccc3n2)cc1` [Example 19, Methyl 2-(4-sulfamoylphenylamimo)quinazolin-6-carboxylic acid], the IC50 was under 5 µM.
Under `C#Cc1cc(OC)c2nc(Nc3cc(CN(C)C)cc(NC(C)=O)c3)ncc2c1Cl` [Example 88, N-(3-(5-chloro-6-ethynyl-8-methoxyquinazolin-2-ylamino)-5-((dimethyl-amino)methyl)phenyl)-acetamide] stands under 5 µM.
Under `COc1cc(-c2nccs2)c(-c2nccs2)c2cnc(Nc3ccc(N4CCOCC4)cc3)nc12` [Example 169, 8-methoxy-N-(4-morpholinophenyl)-5,6-di(thiazol-2-yl)quinazolin-2-amine] stands under 5 µM.
